{"source": "patent US6338963B1", "about": "“Use of carbon monoxide dependent guanylyl cyclase modifiers to stimulate neuritogenesis” (NeoTherapeutics, Inc., priority 1994, dated 2002)", "key": {"[1]": {"test_system": "cultured rat hippocampal neurons", "assay": "NMDA-induced toxicity in cultured rat hippocampal neurons, astrocyte conditioned medium", "procedure": "To determine whether or not AIT-082 afforded in vitro neuroprotection, the effect of AIT-082 on toxicity induced by N-methyl-D-aspartate (NMDA) in cultured rat hippocampal neurons was studied.\nTo determine whether AIT-082 protected against neuronal toxicity induced by NMDA, and whether astrocytes might be involved, cultured astrocytes were exposed to AIT-082 for 6 hr. The drug was then removed and cultures were kept in fresh medium for the following 20 hr. This conditioned medium was then added to primary cultures of rat hippocampal neurons on the seventh day in vitro, immediately after they had been exposed to a toxic pulse of NMDA.\nIt was next evaluated whether the addition of conditioned medium (CM) deriving from astrocyte cultures treated with 100 μM AIT-082 generated protection against damage induced by a toxic pulse with 100 μM NMDA in cultured neurons.\nThe effects of NMDA are shown in FIG. 66A on cortical cells and in FIG. 66B for hippocampal cells."}, "NT-3 mRNA": {"test_system": "NT-3 mRNA", "assay": "RT-PCR of growth factor mRNA after T8 spinal cord hemisection: NT-3", "type": "in vivo, Wistar rats"}, "CNTF mRNA": {"test_system": "CNTF mRNA", "assay": "RT-PCR of growth factor mRNA after T8 spinal cord hemisection: CNTF", "type": "in vivo, Wistar rats"}, "[2]": {"assay": "Appearance and weight during one week in drinking water", "type": "in vivo, F344 rats", "details": "30 mg/kg/day and ~3,000 mg/kg/day in drinking water", "procedure": "Adult female F344 rats were given either AIT-082 (doses: 30 mg/kg/day or a higher dose of 30 mg/ml (˜3,000 mg/kg/day); n=6 rats per group) in their drinking water, or water alone, as a vehicle for control. The duration of the study was seven days, at which time the rats were anesthesized and perfused with ice-cold saline. The brains of the rats were rapidly removed. The brains were placed on a chilled glass plate and dissected into the following regions: basal forebrain, frontal cortex, parietal cortex, cerebellum, spinal cord, and hippocampal formation. Tissues were stored at −70° C. until assayed in a specific two-site ELISA for either NGF, BDNF, NT-3, or GNDF.\nThis effect was not seen in animals treated with AIT-082 at 3000 mg/kg/day."}, "C57BL/6 mice [3]": {"test_system": "C57BL/6 mice", "assay": "Win-shift duration of memory trace, C57BL/6 mice", "type": "in vivo", "details": "for Correct (Mean score ± S.E.) / No. above chance/Total #: AIT-082 30 mg/kg", "procedure": "To determine the duration of the memory trace, subjects were administered drug or saline and 30 minutes (PHY) or 1 hour (AIT-082 or THA) later they were given a single reference run with the milk reward in both goal boxes. After the indicated inter-trial delay, subjects were returned to the start box and given the first test trial with the milk reward only in the goal box opposite to the one entered on the previous correct trial. The subjects were given 10 trials with the reward alternating only after correct responses.\nPrevious work has established that normal adult Swiss Webster mice have a memory trace duration of 60 seconds in the win-shift paradigm which may be increased by the administration of AIT-082."}, "C57BL/6 mice [4]": {"test_system": "C57BL/6 mice", "assay": "Win-shift test, C57BL/6 mice with age-induced memory deficits", "type": "in vivo", "details": "for subjects performing significantly above chance/total number of subjects: AIT-082 30 mg/kg", "procedure": "Twelve-month old male C57BL/6 mice were screened for performance in the win-shift foraging test. Subjects were tested at various inter-trial time intervals. Subjects who could not perform to criteria (>60% correct) at 10 seconds delay were classified as having a severe deficit. Subjects who performed to criteria at 10 seconds but not at 30 seconds were classified as having a moderate degree of deficit and subjects who performed to criteria at 30 seconds but not at 60 seconds were classified as having mild deficit. As in Example 21, subjects in each group were treated with either AIT-082 or PHY to determine the extent to which the working memory trace was prolonged. The results are presented in Table M directly below and graphically represented in FIG. 10."}, "rat cultured astrocytes": {"test_system": "rat cultured astrocytes", "assay": "Release of radioactively labeled adenine-based purines from rat cultured astrocytes", "type": "cell-based", "details": "300 μM, 1 hour", "procedure": "The experiments were carried out on cultured astrocytes of rat hippocampus at the fourth day in vitro (DIV), obtained from primary cultures replated in 35 mm Petri dishes ([…] cells/dish) and preloaded with [^3H]-adenosine (5×10^−8 M for a specific activity of 20.0 Ci/mM) for 30 minutes at 37° C.\nThe effect of AIT-082 on the proportional release of radioactively labeled adenine nucleosides and nucleotides from rat cultured astrocytes is shown in FIGS. 29A and 29B. Culture medium collected during the first hour of the release was analyzed by high performance liquid chromatography (HPLC) and the radioactivity associated with the different adenine compounds was measured and expressed as a percentage of the total radioactivity released. The results are shown for ATP, ADP, and AMP in FIG. 29A, and for adenosine, inosine, and hypoxanthine in FIG. 29B."}}, "note": "Marks after values point to notes of the source that are not given here."}
{"smiles": "O=C(CCn1cnc2c(=O)[nH]cnc21)Nc1ccc(C(=O)O)cc1", "note": "[AIT-082, N-4-carboxyphenyl-3-(6-oxohydropurin-9-yl)propanamide]", "values": [{"measurement": "reduction of cell damage", "setting": "[1]; combination of 100 μM AIT-082 and CM, hippocampal cells, 100 μM NMDA", "value": "70-80%"}, {"measurement": "reduction of the number of dead neurons and the production of LDH caused by NMDA", "setting": "[1]; conditioned medium from astrocytes treated with AIT-082 (50-100 μM) for 6 hr", "value": 50, "unit": "%"}, {"measurement": "NT-3 mRNA level", "setting": "NT-3 mRNA; at the level of the lesion", "value": "no significant differences"}, {"measurement": "NT-3 mRNA level", "setting": "NT-3 mRNA; caudal to lesion, 7 days", "value": "no significant effects"}, {"measurement": "NT-3 mRNA level", "setting": "NT-3 mRNA; caudal to lesion, control animals, 3 days", "value": "decreased"}, {"measurement": "CNTF mRNA level", "setting": "CNTF mRNA; at the level of the lesion", "value": "increased mean CNTF mRNA levels over control animals, although not statistically so"}, {"measurement": "CNTF mRNA level", "setting": "CNTF mRNA; caudal to lesion, 7 days", "value": "no significant effects"}, {"measurement": "CNTF mRNA level", "setting": "CNTF mRNA; rostral to lesion, 3 days, sham-operated over lesion animals", "value": "significantly increased"}, {"measurement": "CNTF mRNA level", "setting": "CNTF mRNA; rostral to lesion, 7 days, control animals, over water alone (p=0.017)", "value": "robust increase"}, {"measurement": "CNTF mRNA level", "setting": "CNTF mRNA; rostral to lesion, 7 days, relative to lesion alone (p=0.056)", "value": "increased CNTF mRNA levels"}, {"measurement": "appearance and weight", "setting": "[2]", "value": "appeared normal and showed no overt signs of weight loss"}, {"measurement": "duration of the memory trace", "setting": "C57BL/6 mice [3]; AIT-082 30 mg/kg i.p., untreated 120 seconds", "value": "over 210 seconds"}, {"measurement": "Correct (Mean score ± S.E.)", "setting": "C57BL/6 mice [3]; inter-trial interval 180 sec", "value": "70 ± 15"}, {"measurement": "No. above chance/Total #", "setting": "C57BL/6 mice [3]; inter-trial interval 180 sec", "value": "4/6"}, {"measurement": "Correct (Mean score ± S.E.)", "setting": "C57BL/6 mice [3]; inter-trial interval 210 sec", "value": "78 ± 15"}, {"measurement": "No. above chance/Total #", "setting": "C57BL/6 mice [3]; inter-trial interval 210 sec", "value": "4/6"}, {"measurement": "Correct (Mean score ± S.E.)", "setting": "C57BL/6 mice [3]; inter-trial interval 240 sec", "value": "50 ± 6"}, {"measurement": "No. above chance/Total #", "setting": "C57BL/6 mice [3]; inter-trial interval 240 sec", "value": "0/6"}, {"measurement": "Correct (Mean score ± S.E.)", "setting": "C57BL/6 mice [3]; inter-trial interval 270 sec", "value": "50 ± 6"}, {"measurement": "No. above chance/Total #", "setting": "C57BL/6 mice [3]; inter-trial interval 270 sec", "value": "0/6"}, {"measurement": "subjects performing significantly above chance/total number of subjects", "setting": "C57BL/6 mice [4]; Mild deficit, interval 60 sec", "value": "4/4*"}, {"measurement": "subjects performing significantly above chance/total number of subjects", "setting": "C57BL/6 mice [4]; Mild deficit, interval 90 sec", "value": "2/4*"}, {"measurement": "subjects performing significantly above chance/total number of subjects", "setting": "C57BL/6 mice [4]; Moderate deficit, interval 10 sec", "value": "6/6*"}, {"measurement": "subjects performing significantly above chance/total number of subjects", "setting": "C57BL/6 mice [4]; Moderate deficit, interval 30 sec", "value": "4/6"}, {"measurement": "subjects performing significantly above chance/total number of subjects", "setting": "C57BL/6 mice [4]; Moderate deficit, interval 60 sec", "value": "1/6"}, {"measurement": "subjects performing significantly above chance/total number of subjects", "setting": "C57BL/6 mice [4]; Moderate deficit, interval 90 sec", "value": "0/6"}, {"measurement": "subjects performing significantly above chance/total number of subjects", "setting": "C57BL/6 mice [4]; Severe deficit, interval <10 sec", "value": "0/6"}, {"measurement": "duration of the memory trace after treatment", "setting": "C57BL/6 mice [4]; mild deficit group, prolonged from 30", "value": 90, "unit": "s"}, {"measurement": "duration of the memory trace after treatment", "setting": "C57BL/6 mice [4]; moderate deficit group, prolonged from 10", "value": 30, "unit": "s"}]}
{"smiles": "Nc1nc2c(ncn2[C@@H]2O[C@H](CO)[C@@H](O)[C@H]2O)c(=O)[nH]1", "note": "[guanosine]", "values": [{"measurement": "ADP, proportional release", "setting": "rat cultured astrocytes", "value": "(6.5 ± 0.7) percentage of the total [^3H]-purines released"}, {"measurement": "Adenosine, proportional release", "setting": "rat cultured astrocytes", "value": "(11.9 ± 0.8) percentage of the total [^3H]-purines released"}, {"measurement": "Inosine, proportional release", "setting": "rat cultured astrocytes", "value": "(36.0 ± 3.9) percentage of the total [^3H]-purines released"}]}
